According to patent US11485733B2, “Azaquinoline derivatives” (BAYER ANIMAL HEALTH GMBH, priority 2017, dated 2022):

How the values were obtained:
[1] = test system: Dirofilaria immitis microfilariae; assay: Dirofilaria immitis microfilariae (DIROIM L1) motility; conditions: 72 h, read-out: EC50 (reduction of motility)
Dirofilaria immitis = Dirofilaria immitis (DIROIM L4) larval motility; conditions: 72 h, read-out: EC50 (reduction of motility)
[2] = test system: Nippostrongylus brasiliensis; assay: Nippostrongylus brasiliensis (NIPOBR) adult worms, acetylcholine esterase readout; conditions: read-out: activity (reduction of AChE compared to negative control); for inhibition at 1 µg/mL: at 1 μg/ml (1 ppm); for inhibition at 10 µg/mL: at 10 μg/ml (10 ppm)
Description: In Vitro Assay 3: Nippostrongylus brasiliensis (NIPOBR)
Adult Nippostrongylus brasiliensis were washed with saline buffer containing 100 U/ml penicillin, 0.1 mg/ml streptomycin and 2.5 μg/ml amphotericin B. Test compounds were dissolved in DMSO and worms were incubated in medium in a final concentration of 10 μg/ml (10 ppm) respectively 1 μg/ml (1 ppm). An aliquot of the medium was used to determine the acetylcholine esterase activity in comparison to a negative control. The principle of measuring acetylcholine esterase as readout for anthelmintic activity was described in Rapson et al (1986) and Rapson et al (1987).

D. immitis Slo-1 = D. immitis Slo-1 (Dirofilaria immitis, UniProt I0DFK5); assay: D. immitis Slo-1, action at a recombinant CHO cell line (membrane potential, FLIPR); assay type: cell-based
Chain of D. immitis Slo-1 (I0DFK5 1-1119): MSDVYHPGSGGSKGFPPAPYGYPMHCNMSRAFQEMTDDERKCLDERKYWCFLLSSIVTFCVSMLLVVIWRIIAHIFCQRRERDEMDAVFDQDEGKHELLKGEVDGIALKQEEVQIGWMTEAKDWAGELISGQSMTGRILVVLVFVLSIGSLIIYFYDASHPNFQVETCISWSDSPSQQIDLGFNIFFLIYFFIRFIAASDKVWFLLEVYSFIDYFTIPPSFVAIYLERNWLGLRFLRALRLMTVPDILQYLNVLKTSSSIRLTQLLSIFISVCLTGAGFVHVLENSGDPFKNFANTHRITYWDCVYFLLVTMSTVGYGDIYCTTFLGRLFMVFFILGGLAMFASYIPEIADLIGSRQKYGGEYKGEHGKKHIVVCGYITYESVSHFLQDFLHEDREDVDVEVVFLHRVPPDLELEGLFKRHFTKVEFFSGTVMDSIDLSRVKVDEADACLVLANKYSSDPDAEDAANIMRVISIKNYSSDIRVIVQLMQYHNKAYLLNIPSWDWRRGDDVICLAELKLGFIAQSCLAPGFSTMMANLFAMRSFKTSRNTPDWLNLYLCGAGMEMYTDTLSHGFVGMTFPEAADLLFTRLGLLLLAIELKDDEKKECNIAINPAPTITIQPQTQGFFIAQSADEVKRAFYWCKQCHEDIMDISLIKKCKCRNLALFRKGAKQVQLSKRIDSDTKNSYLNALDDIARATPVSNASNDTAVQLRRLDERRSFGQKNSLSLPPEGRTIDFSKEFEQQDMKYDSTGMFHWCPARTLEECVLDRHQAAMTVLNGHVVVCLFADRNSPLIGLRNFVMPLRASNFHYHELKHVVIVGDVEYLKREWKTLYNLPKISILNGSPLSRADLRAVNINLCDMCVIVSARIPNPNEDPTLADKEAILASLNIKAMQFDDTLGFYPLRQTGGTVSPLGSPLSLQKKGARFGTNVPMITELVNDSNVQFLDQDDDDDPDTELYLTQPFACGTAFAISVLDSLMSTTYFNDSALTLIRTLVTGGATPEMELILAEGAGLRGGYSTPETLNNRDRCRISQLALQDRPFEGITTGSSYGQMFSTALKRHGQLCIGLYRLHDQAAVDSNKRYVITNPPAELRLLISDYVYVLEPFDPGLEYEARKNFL

SMILES | EC50 [1] | EC50 (Dirofilaria immitis) | inhibition at 1 µg/mL [2] | inhibition at 10 µg/mL [2] | EC50 (D. immitis Slo-1)
O=C(N[C@H]1CCOc2ccccc21)c1cnc2c(-c3cc(F)cc(F)c3F)ncc(F)c2c1N1CCOCC1 [Example T1-8, N-[(4S)-3,4-dihydro-2H-1-benzopyran-4-yl]-5-fluoro-4-(morpholin-4-yl)-8-(2,3,5-trifluorophenyl)-1,7-naphthyridine-3-carboxamide] | < 0.1 µg/mL | < 0.1 µg/mL | > 80% | > 80% | 31.6 to 316 nM
COc1cnc(-c2cc(F)cc(F)c2F)c2ncc(C(=O)N[C@H]3CCOc4ccccc43)c(N(C)C)c12 [Example T1-13, N-[(4S)-3,4-dihydro-2H-1-benzopyran-4-yl]-4-(dimethylamino)-5-methoxy-8-(2,3,5-trifluorophenyl)-1,7-naphthyridine-3-carboxamide] | < 0.1 µg/mL | < 0.1 µg/mL | > 80% | > 80% | 31.6 to 316 nM
COc1ncc2c(N3CCOCC3)c(C(=O)N[C@H]3CCOc4ccccc43)cnc2c1-c1cccc(Cl)c1Cl [Example T2-6, 8-(2,3-dichlorophenyl)-N-[(4S)-3,4-dihydro-2H-1-benzopyran-4-yl]-7-methoxy-4-(morpholin-4-yl)-1,6-naphthyridine-3-carboxamide] | < 0.1 µg/mL | < 0.1 µg/mL |  |  | 3.16 to 31.6 nM
COc1ncc2c(N(C)C)c(C(=O)N[C@H]3CCOc4ccccc43)cnc2c1-c1cccc(Cl)c1Cl [Example T2-7, 8-(2,3-dichlorophenyl)-N-[(4S)-3,4-dihydro-2H-1-benzopyran-4-yl]-4-(dimethylamino)-7-methoxy-1,6-naphthyridine-3-carboxamide] | < 0.1 µg/mL | < 0.1 µg/mL |  |  | 3.16 to 31.6 nM
COc1ncc2c(N(C)C)c(C(=O)N[C@H]3CCOc4ccccc43)cnc2c1-c1cc(Cl)cc(Cl)c1 [Example T2-8, 8-(3,5-dichlorophenyl)-N-[(4S)-3,4-dihydro-2H-1-benzopyran-4-yl]-4-(dimethylamino)-7-methoxy-1,6-naphthyridine-3-carboxamide] | < 0.1 µg/mL | < 0.1 µg/mL | > 80% | > 80% | 3.16 to 31.6 nM
COc1ncc2c(N3CCOCC3)c(C(=O)N[C@H]3CCOc4ccccc43)cnc2c1-c1cc(Cl)cc(Cl)c1 [Example T2-9, 8-(3,5-dichlorophenyl)-N-[(4S)-3,4-dihydro-2H-1-benzopyran-4-yl]-7-methoxy-4-(morpholin-4-yl)-1,6-naphthyridine-3-carboxamide] | < 0.1 µg/mL | < 0.1 µg/mL | > 80% | > 80% | 3.16 to 31.6 nM
COc1ncc(-c2cc(Cl)cc(Cl)c2)c2ncc(C(=O)N[C@H]3CCOc4ccccc43)c(N3CCOCC3)c12 [Example T2-10, 8-(3,5-dichlorophenyl)-N-[(4S)-3,4-dihydro-2H-1-benzopyran-4-yl]-5-methoxy-4-(morpholin-4-yl)-1,6-naphthyridine-3-carboxamide] | < 0.1 µg/mL | < 0.1 µg/mL | > 80% | > 80% | 31.6 to 316 nM
CN(C)c1c(C(=O)N[C@H]2CCOc3ccccc32)cnc2c(-c3cc(F)cc(F)c3F)c(Cl)cnc12 [Example T3-5, 7-chloro-N-[(4S)-3,4-dihydro-2H-1-benzopyran-4-yl]-4-(dimethylamino)-8-(2,3,5-trifluorophenyl)-1,5-naphthyridine-3-carboxamide] | < 0.1 µg/mL | < 0.1 µg/mL |  |  | 3.16 to 31.6 nM
O=C(N[C@H]1CCOc2ccccc21)c1cnc2c(-c3cc(F)cc(F)c3F)c(Cl)cnc2c1N1CCOCC1 [Example T3-6, 7-chloro-N-[(4S)-3,4-dihydro-2H-1-benzopyran-4-yl]-4-(morpholin-4-yl)-8-(2,3,5-trifluorophenyl)-1,5-naphthyridine-3-carboxamide] | < 0.1 µg/mL | < 0.1 µg/mL |  |  | 3.16 to 31.6 nM
CN(C)c1c(C(=O)N[C@H]2CCOc3ccccc32)cnc2c(-c3cc(Cl)cc(Cl)c3)c(Cl)cnc12 [Example T3-7, 7-chloro-8-(3,5-dichlorophenyl)-N-[(4S)-3,4-dihydro-2H-1-benzopyran-4-yl]-4-(dimethylamino)-1,5-naphthyridine-3-carboxamide] | < 0.1 µg/mL | < 0.1 µg/mL |  |  | 3.16 to 31.6 nM
CN(C)c1c(C(=O)N[C@H]2CCOc3ccccc32)cnc2c(-c3cccc(Cl)c3Cl)c(Cl)cnc12 [Example T3-8, 7-chloro-8-(2,3-dichlorophenyl)-N-[(4S)-3,4-dihydro-2H-1-benzopyran-4-yl]-4-(dimethylamino)-1,5-naphthyridine-3-carboxamide] | < 0.1 µg/mL | < 0.1 µg/mL | > 80% | > 80% | 3.16 to 31.6 nM
O=C(N[C@H]1CCOc2ccccc21)c1cnc2c(-c3cccc(Cl)c3Cl)c(Cl)cnc2c1N1CCOCC1 [Example T3-9, 7-chloro-8-(2,3-dichlorophenyl)-N-[(4S)-3,4-dihydro-2H-1-benzopyran-4-yl]-4-(morpholin-4-yl)-1,5-naphthyridine-3-carboxamide] | < 0.1 µg/mL | < 0.1 µg/mL | > 80% | > 80% | 3.16 to 31.6 nM
COc1cnc2c(N(C)C)c(C(=O)N[C@H]3CCOc4ccccc43)cnc2c1-c1cc(Cl)cc(Cl)c1 [Example T3-10, 8-(3,5-dichlorophenyl)-N-[(4S)-3,4-dihydro-2H-1-benzopyran-4-yl]-4-(dimethylamino)-7-methoxy-1,5-naphthyridine-3-carboxamide] | < 0.1 µg/mL | < 0.1 µg/mL | > 80% | > 80% | 3.16 to 31.6 nM
CN(C)c1c(C(=O)N[C@H]2CCOc3ccccc32)cnc2c(-c3cc(Cl)cc(Cl)c3)c(F)cnc12 [Example T3-11, 8-(3,5-dichlorophenyl)-N-[(4S)-3,4-dihydro-2H-1-benzopyran-4-yl]-4-(dimethylamino)-7-fluoro-1,5-naphthyridine-3-carboxamide] | < 0.1 µg/mL | < 0.1 µg/mL | > 80% | > 80% | 3.16 to 31.6 nM
COc1cnc2c(N(C)C)c(C(=O)N[C@H]3CCOc4ccccc43)cnc2c1-c1cccc(Cl)c1Cl [Example T3-12, 8-(2,3-dichlorophenyl)-N-[(4S)-3,4-dihydro-2H-1-benzopyran-4-yl]-4-(dimethylamino)-7-methoxy-1,5-naphthyridine-3-carboxamide] | < 0.1 µg/mL | < 0.1 µg/mL | > 80% | > 80% | 3.16 to 31.6 nM
COc1cnc2c(N3CCOCC3)c(C(=O)N[C@H]3CCOc4ccccc43)cnc2c1-c1cccc(Cl)c1Cl [Example T3-14, 8-(2,3-dichlorophenyl)-N-[(4S)-3,4-dihydro-2H-1-benzopyran-4-yl]-7-methoxy-4-(morpholin-4-yl)-1,5-naphthyridine-3-carboxamide] | < 0.1 µg/mL | < 0.1 µg/mL | > 80% | > 80% | 3.16 to 31.6 nM
COc1cnc2c(N3CCOCC3)c(C(=O)N[C@H]3CCOc4ccccc43)cnc2c1-c1cc(F)cc(F)c1F [Example T3-16, N-[(4S)-3,4-dihydro-2H-1-benzopyran-4-yl]-7-methoxy-4-(morpholin-4-yl)-8-(2,3,5-trifluorophenyl)-1,5-naphthyridine-3-carboxamide] | < 0.1 µg/mL | < 0.1 µg/mL | > 80% | > 80% | 3.16 to 31.6 nM
